Measured values taken from BindingDB's records for doi:10.1021/jm031026e (Universit&#224, 2004).

These compounds were tested against Sigma non-opioid intracellular receptor 1 (Cavia porcellus) (UniProt Q60492) (assay: In vitro binding affinity at opioid sigma-1 receptor in guinea pig brain membranes by (+)-[3H]pentazocine displacement.).
Chain of Sigma non-opioid intracellular receptor 1 (Cavia porcellus) (Q60492 whole entry, looked up): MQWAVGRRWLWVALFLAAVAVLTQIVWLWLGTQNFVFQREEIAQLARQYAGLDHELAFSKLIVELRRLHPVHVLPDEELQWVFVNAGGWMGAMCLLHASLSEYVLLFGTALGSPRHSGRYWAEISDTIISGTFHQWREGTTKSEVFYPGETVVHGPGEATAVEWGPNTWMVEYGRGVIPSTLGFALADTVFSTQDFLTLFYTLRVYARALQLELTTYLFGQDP

Row | Structure (SMILES) | Ki [nM]
1 | c1ccc2c(CCCN3CCN(C4CCCCC4)CC3)cccc2c1 [1-Cyclohexyl-4-(3-naphthalen-1-yl-propyl)-piperazine] | 2.16
2 | c1ccc2c(CCCCN3CCN(C4CCCCC4)CC3)cccc2c1 [1-Cyclohexyl-4-(4-naphthalen-1-yl-butyl)-piperazine] | 0.22
3 | COc1cccc2c1CCCC2N1CCN(C2CCCCC2)CC1 (centres undefined) [1-Cyclohexyl-4-(5-methoxy-1,2,3,4-tetrahydro-naphthalen-1-yl)-piperazine] | 0.4
4 | COc1cccc2c1CCCC2CN1CCN(C2CCCCC2)CC1 (centres undefined) [1-Cyclohexyl-4-(5-methoxy-1,2,3,4-tetrahydro-naphthalen-1-ylmethyl)-piperazine] | 0.31
5 | c1ccc2c(CCCCCN3CCN(C4CCCCC4)CC3)cccc2c1 [1-Cyclohexyl-4-(5-naphthalen-1-yl-pentyl)-piperazine] | 2.4
6 | COc1cccc2c1CCCC2CCN1CCN(C2CCCCC2)CC1 (centres undefined) [1-Cyclohexyl-4-[2-(5-methoxy-1,2,3,4-tetrahydro-naphthalen-1-yl)-ethyl]-piperazine] | 1.57
7 | c1ccc2c(c1)CCCC2CCCN1CCN(C2CCCCC2)CC1 (centres undefined) [1-Cyclohexyl-4-[3-(1,2,3,4-tetrahydro-naphthalen-1-yl)-propyl]-piperazine] | 0.61
8 | COc1ccc2c(c1)CCCC2CCCN1CCN(C2CCCCC2)CC1 (centres undefined) [1-Cyclohexyl-4-[3-(6-methoxy-1,2,3,4-tetrahydro-naphthalen-1-yl)-propyl]-piperazine] | 0.36
9 | c1ccc(CCN2CCCCC2)cc1 [N-phenethylpiperidine] | 309

Now from value to compound:

Row | Ki [nM] | Structure (SMILES)
10 | 9.04 | COc1ccc2c(c1)C(CCCN1CCN(C3CCCCC3)CC1)CCC2 (centres undefined) [1-Cyclohexyl-4-[3-(7-methoxy-1,2,3,4-tetrahydro-naphthalen-1-yl)-propyl]-piperazine]
11 | 1.45 | c1ccc2c(c1)CCCC2CCCCCN1CCN(C2CCCCC2)CC1 (centres undefined) [1-Cyclohexyl-4-[5-(1,2,3,4-tetrahydro-naphthalen-1-yl)-pentyl]-piperazine]
12 | 1.52 | COc1cccc2c1CCCC2CCCCCN1CCN(C2CCCCC2)CC1 (centres undefined) [1-Cyclohexyl-4-[5-(5-methoxy-1,2,3,4-tetrahydro-naphthalen-1-yl)-pentyl]-piperazine]
13 | 3.07 | COc1cccc2c1CCCC2CCCCCCN1CCN(C2CCCCC2)CC1 (centres undefined) [1-Cyclohexyl-4-[6-(5-methoxy-1,2,3,4-tetrahydro-naphthalen-1-yl)-hexyl]-piperazine]
14 | 0.69 | Oc1ccc2c(c1)CCCC2CCCN1CCN(C2CCCCC2)CC1 (centres undefined) [5-[3-(4-Cyclohexyl-piperazin-1-yl)-propyl]-5,6,7,8-tetrahydro-naphthalen-2-ol]
